Experimental data from US20110230481A2, “DERIVATIVES OF TETRABROMOBENZIMIDAZOLE, A PROCESS FOR THE PREPARATION THEREOF, A PHARMACEUTICAL COMPOSITION COMPRISING THE SAME, A METHOD OF USING THE SAME, A METHOD FOR MODULATING OR REGULATING SERINE/THREONINE KINASES, AND SERINE/THREONINE KINASES MODULATING AGENT” (SELVITA S.A., priority 2009, published 2011).

How the values were obtained:
Test in all cases: KINOMEscan Max
Type in all cases: binding
[1] = target: T1, PRKCE (Homo sapiens, UniProt Q02156)
T1 construct: DNA tag (qPCR read-out); purchased Ambit Kinomescan
Procedure, shortened: (§1)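 Compound displacement of DNA-tagged kinase from immobilized active-site ligand; qPCR of tag as read-out.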

[2] = target: T2, BMPR1A (Homo sapiens, UniProt P36894)
T2 construct: DNA tag (qPCR label); purchased Ambit Kinomescan (contract screening)
Procedure, shortened: as §1

[3] = target: T3, FGFR3(G697C) (Homo sapiens, UniProt P22607, G697C)
T3 construct: purchased Ambit Kinomescan (contract panel, KINOMEscan Max)
Procedure, shortened: as §1

[4] = target: T4, CAMK1 (Homo sapiens, UniProt Q14012)
T4 construct: purchased Ambit Kinomescan (contract screening)
T4 sequence (Q14012 whole entry): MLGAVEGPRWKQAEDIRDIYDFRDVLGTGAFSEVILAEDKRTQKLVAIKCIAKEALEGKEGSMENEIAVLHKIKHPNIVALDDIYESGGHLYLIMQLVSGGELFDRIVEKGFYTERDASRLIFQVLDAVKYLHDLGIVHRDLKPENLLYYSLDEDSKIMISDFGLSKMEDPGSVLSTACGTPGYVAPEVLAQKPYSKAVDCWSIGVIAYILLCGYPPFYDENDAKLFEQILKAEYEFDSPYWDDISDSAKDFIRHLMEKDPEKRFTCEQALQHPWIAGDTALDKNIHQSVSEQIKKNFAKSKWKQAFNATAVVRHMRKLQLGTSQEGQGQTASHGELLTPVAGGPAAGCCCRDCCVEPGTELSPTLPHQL
Procedure, shortened: as §1

[5] = target: ABL1(H396P)-phosphorylated (Homo sapiens, UniProt P00519, H396P)
Procedure, shortened: as §1

[6] = target: T5, PLK2 (Homo sapiens, UniProt Q9NYY3); details: 1 μM
T5 construct: DNA tag (qPCR read-out)
Procedure, shortened: as §1

[7] = target: MKK7 (Homo sapiens, UniProt O14733); details: 1 μM
Procedure, shortened: as §1

[8] = target: T6, GSK3A (Homo sapiens, UniProt P49840)
T6 construct: purchased Ambit Kinomescan (contract panel, KINOMEscan Max)
T6 sequence (P49840 whole entry): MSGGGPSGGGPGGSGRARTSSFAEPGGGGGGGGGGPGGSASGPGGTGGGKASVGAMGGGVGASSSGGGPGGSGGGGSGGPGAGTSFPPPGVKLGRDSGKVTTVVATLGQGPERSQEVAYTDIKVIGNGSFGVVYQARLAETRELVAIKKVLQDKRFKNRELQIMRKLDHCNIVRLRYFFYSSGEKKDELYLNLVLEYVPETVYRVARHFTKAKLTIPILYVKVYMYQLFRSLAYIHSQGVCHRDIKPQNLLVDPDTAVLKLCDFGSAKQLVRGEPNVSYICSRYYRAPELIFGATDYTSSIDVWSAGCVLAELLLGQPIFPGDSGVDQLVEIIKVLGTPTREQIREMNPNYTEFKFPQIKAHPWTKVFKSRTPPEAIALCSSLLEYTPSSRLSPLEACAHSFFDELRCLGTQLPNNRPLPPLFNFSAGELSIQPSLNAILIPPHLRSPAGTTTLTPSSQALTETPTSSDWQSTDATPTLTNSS
Procedure, shortened: as §1

[9] = target: T7, CSNK2A1 (Homo sapiens, UniProt P68400)
T7 construct: purchased Ambit (KINOMEscan Max panel service)
Procedure, shortened: as §1

[10] = target: T8, YES (Homo sapiens, UniProt P07947)
T8 construct: purchased Ambit Kinomescan (contract screening service)
T8 sequence (P07947 whole entry): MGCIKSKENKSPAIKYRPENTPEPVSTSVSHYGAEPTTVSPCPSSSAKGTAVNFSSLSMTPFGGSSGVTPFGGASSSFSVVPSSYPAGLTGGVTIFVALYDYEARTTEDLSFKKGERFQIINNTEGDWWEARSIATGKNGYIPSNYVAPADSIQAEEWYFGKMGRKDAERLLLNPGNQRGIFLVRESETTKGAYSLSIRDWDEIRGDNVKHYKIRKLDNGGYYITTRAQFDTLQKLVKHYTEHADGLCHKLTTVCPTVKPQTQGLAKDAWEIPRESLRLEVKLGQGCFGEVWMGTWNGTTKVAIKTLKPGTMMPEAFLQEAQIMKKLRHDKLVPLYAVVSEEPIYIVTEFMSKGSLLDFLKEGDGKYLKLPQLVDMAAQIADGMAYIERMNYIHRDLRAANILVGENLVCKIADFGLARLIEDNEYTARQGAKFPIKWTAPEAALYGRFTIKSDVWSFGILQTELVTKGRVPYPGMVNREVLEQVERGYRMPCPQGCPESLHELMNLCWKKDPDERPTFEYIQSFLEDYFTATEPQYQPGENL
Procedure, shortened: as §1

[11] = target: T9, TNK2 (Homo sapiens, UniProt Q07912)
T9 construct: purchased Ambit Kinomescan (contract screening service)
Procedure, shortened: as §1

[12] = target: T10, ULK3 (Homo sapiens, UniProt Q6PHR2); details: 1 μM
T10 construct: purchased Ambit Kinomescan (contract screening service)
Procedure, shortened: as §1

[13] = target: T11, AXL (Homo sapiens, UniProt P30530)
T11 construct: DNA tag (qPCR read-out)
T11 sequence (P30530 26-894): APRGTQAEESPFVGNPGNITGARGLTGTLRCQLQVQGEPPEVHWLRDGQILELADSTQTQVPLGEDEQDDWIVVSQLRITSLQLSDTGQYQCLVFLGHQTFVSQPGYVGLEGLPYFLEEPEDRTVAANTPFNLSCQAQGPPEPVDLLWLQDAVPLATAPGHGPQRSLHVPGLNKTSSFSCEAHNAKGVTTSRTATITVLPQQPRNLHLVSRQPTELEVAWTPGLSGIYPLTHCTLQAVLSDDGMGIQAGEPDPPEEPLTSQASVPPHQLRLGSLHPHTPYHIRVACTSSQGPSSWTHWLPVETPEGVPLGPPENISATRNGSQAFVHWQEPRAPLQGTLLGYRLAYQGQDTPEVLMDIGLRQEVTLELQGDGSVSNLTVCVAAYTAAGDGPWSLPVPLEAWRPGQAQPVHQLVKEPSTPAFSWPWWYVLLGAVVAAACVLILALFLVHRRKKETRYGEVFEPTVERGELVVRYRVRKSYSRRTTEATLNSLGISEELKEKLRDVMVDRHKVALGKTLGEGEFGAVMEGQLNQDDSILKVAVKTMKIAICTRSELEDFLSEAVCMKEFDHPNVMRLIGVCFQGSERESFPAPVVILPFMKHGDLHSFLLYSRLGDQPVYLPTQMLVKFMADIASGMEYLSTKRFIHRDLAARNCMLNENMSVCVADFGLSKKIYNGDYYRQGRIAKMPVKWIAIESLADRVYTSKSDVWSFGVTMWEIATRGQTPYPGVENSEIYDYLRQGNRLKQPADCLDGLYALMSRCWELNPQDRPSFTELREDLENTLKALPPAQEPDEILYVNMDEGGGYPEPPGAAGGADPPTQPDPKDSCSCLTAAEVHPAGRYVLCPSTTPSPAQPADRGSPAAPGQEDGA
Procedure, shortened: as §1

[14] = target: DAPK3 (Homo sapiens, UniProt O43293)
Procedure, shortened: as §1

[15] = target: T12, PFTK1 (Homo sapiens, UniProt O94921); details: 1 μM
T12 construct: DNA tag (qPCR read-out)
Procedure, shortened: as §1

[16] = target: T13, TYK2(JH1domain-catalytic) (Homo sapiens, UniProt P29597); details: 1 μM
T13 construct: TYK2(JH1domain-catalytic); purchased Ambit Kinomescan (contract screening service)
Procedure, shortened: as §1

[17] = target: T14, CSNK1D (Homo sapiens, UniProt P48730)
T14 construct: DNA tag (qPCR read-out); purchased Ambit Kinomescan
Procedure, shortened: as §1

[18] = target: MTOR (Homo sapiens, UniProt P42345)
Procedure, shortened: as §1

[19] = target: T15, CDC2L1 (Homo sapiens, UniProt P21127)
T15 construct: DNA tag (qPCR label); purchased Ambit Kinomescan (contract screening)
T15 sequence (P21127 whole entry): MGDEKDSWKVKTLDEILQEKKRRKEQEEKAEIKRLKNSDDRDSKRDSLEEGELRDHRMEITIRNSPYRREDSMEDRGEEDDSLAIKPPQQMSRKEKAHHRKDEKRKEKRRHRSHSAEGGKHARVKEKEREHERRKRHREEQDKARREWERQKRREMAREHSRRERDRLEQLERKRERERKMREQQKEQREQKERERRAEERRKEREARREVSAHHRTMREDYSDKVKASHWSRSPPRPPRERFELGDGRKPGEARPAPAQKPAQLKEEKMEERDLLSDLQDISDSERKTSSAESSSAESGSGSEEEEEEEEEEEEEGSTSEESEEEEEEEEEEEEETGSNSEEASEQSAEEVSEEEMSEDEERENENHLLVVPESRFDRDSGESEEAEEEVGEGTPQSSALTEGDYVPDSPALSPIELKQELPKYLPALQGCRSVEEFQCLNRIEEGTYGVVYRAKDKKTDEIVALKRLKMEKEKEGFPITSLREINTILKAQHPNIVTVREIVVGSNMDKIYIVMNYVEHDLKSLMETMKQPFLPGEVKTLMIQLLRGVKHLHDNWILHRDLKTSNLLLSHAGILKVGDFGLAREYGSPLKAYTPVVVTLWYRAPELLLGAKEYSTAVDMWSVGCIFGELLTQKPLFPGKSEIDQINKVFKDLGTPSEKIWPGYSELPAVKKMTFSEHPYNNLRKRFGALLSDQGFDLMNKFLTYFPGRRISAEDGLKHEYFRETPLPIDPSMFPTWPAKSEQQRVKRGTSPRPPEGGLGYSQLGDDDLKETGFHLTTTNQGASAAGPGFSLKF
Procedure, shortened: as §1

[20] = target: T16, FGFR3 (Homo sapiens, UniProt P22607)
T16 construct: purchased Ambit (KINOMEscan Max service)
Procedure, shortened: as §1

[21] = target: ABL1(T315I)-phosphorylated (Homo sapiens, UniProt P00519, T315I)
Procedure, shortened: as §1

[22] = target: T17, ANKK1 (Homo sapiens, UniProt Q8NFD2)
T17 construct: DNA tag (qPCR label); purchased Ambit Kinomescan (contract screening)
T17 sequence (Q8NFD2 whole entry): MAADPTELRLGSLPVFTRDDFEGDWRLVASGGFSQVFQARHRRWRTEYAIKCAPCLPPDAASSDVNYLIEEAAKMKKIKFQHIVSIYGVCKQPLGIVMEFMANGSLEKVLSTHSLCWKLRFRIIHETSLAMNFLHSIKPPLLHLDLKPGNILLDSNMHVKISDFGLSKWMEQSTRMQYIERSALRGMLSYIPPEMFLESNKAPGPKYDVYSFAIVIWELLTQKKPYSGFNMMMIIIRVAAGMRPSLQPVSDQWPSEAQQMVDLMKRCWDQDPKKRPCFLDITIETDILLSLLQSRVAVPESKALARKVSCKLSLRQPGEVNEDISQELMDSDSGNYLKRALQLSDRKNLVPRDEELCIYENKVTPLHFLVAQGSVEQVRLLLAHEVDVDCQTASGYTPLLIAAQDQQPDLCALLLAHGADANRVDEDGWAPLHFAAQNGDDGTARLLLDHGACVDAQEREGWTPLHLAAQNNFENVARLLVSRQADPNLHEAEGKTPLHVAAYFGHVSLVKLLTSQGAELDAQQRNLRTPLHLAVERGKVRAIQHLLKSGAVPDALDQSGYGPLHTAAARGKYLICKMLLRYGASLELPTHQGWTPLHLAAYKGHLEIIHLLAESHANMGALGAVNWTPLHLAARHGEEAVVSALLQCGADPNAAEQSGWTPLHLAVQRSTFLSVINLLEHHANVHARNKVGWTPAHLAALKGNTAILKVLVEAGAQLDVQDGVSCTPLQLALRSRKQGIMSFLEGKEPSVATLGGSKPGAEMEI
Procedure, shortened: as §1

[23] = target: T18, NEK11 (Homo sapiens, UniProt Q8NG66)
T18 construct: DNA tag (qPCR read-out)
Procedure, shortened: as §1

[24] = target: ABL1(Q252H)-phosphorylated (Homo sapiens, UniProt P00519, Q252H)
Procedure, shortened: as §1

[25] = target: T19, EPHA4 (Homo sapiens, UniProt P54764)
T19 construct: purchased Ambit (KINOMEscan Max panel service)
Procedure, shortened: as §1

[26] = target: T20, PFCDPK1(P.falciparum) (Plasmodium falciparum, UniProt P62344)
T20 construct: purchased Ambit Kinomescan (contract screening)
Procedure, shortened: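 Competition binding assay: test compound competes with an immobilized, active-site directed ligand for DNA-tagged kinase. Kinase captured on the ligand is quantified by qPCR of the DNA tag.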

[27] = target: T21, EGFR(E746-A750del) (Homo sapiens, UniProt P00533, DEL746-750); details: 1 μM
T21 construct: purchased Ambit (KINOMEscan Max service)
Procedure, shortened: as §1

[28] = target: T22, EGFR(L747-E749del. A750P) (Homo sapiens, UniProt P00533, A750P/DEL747-749); details: 1 μM
T22 construct: purchased Ambit (KINOMEscan Max panel service)
Procedure, shortened: as §1

[29] = target: NEK5 (Homo sapiens, UniProt Q6P3R8)
Sequence of NEK5 (Q6P3R8 whole entry): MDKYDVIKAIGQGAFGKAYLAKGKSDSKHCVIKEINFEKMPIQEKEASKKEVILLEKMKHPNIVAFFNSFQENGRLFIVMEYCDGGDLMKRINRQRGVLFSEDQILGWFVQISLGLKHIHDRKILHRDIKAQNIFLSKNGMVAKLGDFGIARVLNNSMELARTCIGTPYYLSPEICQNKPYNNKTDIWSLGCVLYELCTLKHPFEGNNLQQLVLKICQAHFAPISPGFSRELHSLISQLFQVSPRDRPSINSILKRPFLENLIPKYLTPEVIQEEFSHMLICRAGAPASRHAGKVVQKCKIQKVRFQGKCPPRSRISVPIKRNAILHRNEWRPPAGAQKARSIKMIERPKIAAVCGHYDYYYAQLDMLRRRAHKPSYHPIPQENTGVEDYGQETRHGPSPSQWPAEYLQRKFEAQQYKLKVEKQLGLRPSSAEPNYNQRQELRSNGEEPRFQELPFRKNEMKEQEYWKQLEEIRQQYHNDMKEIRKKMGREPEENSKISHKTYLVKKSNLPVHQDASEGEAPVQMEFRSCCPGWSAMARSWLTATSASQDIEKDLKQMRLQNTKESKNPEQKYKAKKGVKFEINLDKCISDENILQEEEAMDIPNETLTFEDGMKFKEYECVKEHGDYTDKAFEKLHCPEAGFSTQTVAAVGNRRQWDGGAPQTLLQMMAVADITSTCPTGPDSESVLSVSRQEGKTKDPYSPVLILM
Procedure, shortened: as §1

[30] = target: MEK6 (Homo sapiens, UniProt P52564)
Sequence of MEK6 (P52564 whole entry): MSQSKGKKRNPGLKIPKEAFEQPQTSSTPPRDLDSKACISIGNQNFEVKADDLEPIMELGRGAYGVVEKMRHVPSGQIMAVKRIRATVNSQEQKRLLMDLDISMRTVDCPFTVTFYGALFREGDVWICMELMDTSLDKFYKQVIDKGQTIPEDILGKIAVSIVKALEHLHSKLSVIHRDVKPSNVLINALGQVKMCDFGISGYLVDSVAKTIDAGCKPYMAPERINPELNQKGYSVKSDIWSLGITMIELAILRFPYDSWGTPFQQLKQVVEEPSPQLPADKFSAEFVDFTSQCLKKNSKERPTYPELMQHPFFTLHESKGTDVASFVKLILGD
Procedure, shortened: as §1

[31] = target: T23, KIT(L576P) (Homo sapiens, UniProt P10721, L576P)
T23 construct: purchased Ambit (KINOMEscan Max service)
Procedure, shortened: as §1

[32] = target: T24, MAP3K3 (Homo sapiens, UniProt Q99759)
T24 construct: purchased Ambit Kinomescan (contract panel)
Procedure, shortened: as §1

[33] = target: CDK3 (Homo sapiens, UniProt Q00526); details: 1 μM
Procedure, shortened: as §1

Structure (SMILES): NCCCNc1nc2c(Br)c(Br)c(Br)c(Br)c2[nH]1 [Compound 11, N-(3-aminopropyl)-4,5,6,7-tetrabromo-1H-benzo[d]imidazol-2-amine]
- remaining binding at 1 µM [1]: 23%
- remaining binding at 1 µM [2]: 100%
- remaining binding at 1 µM [3]: 100%
- remaining binding at 1 µM [4]: 98%
- remaining binding at 1 µM [5]: 100%
- % binding [6]: 31%
- % binding [7]: 100%
- remaining binding at 1 µM [8]: 100%
- remaining binding at 1 µM [9]: 100%
- remaining binding at 1 µM [10]: 100%
- remaining binding at 1 µM [11]: 100%
- % binding [12]: 100%
- remaining binding at 1 µM [13]: 90%
- remaining binding at 1 µM [14]: 73%
- % binding [15]: 100%
- % binding [16]: 100%
- remaining binding at 1 µM [17]: 17%
- remaining binding at 1 µM [18]: 100%
- remaining binding at 1 µM [19]: 100%
- remaining binding at 1 µM [20]: 84%
- remaining binding at 1 µM [21]: 100%
- remaining binding at 1 µM [22]: 100%
- remaining binding at 1 µM [23]: 89%
- remaining binding at 1 µM [24]: 100%
- remaining binding at 1 µM [25]: 100%
- remaining binding at 1 µM [26]: 96%
- % binding [27]: 72%
- % binding [28]: 100%
- remaining binding at 1 µM [29]: 100%
- remaining binding at 1 µM [30]: 100%
- remaining binding at 1 µM [31]: 83%
- remaining binding at 1 µM [32]: 100%
- % binding [33]: 74%
